The record followed here is patent US20220226357A1, “METHODS FOR TREATING NEURODEGENERATIVE DISORDERS” (THOMAS JEFFERSON UNIVERSITY, priority 2019, published 2022).

For assay [1], the system named is AAV-A53T α-synuclein rat model. In words: Stereological counting of TH+ and Nissl (cresyl violet) stained neurons in the SNc. It counts as in vivo. On the procedure: (§1) Institutional Animal Care and Use Committee and conducted in accordance with the National Institutes of Health Guide for the Care and Use of Laboratory Animals. Adult male Sprague-Dawley rats (Envigo), 250 to 300 g at the time of surgery, were housed three per cage with ad libitum access to food and water during a 12-hour light/dark cycle. All surgeries were performed under general anesthesia using a mixture of ketamine (100 mg/kg, i.p.) and xylazine (10 mg/kg, i.p.). Once animals were anesthetized, the head was shaved and surgically prepped with Betadine solution and alcohol before being placed in a Kopf stereotaxic frame with the incisor bar set at approximately 3.5 mm below horizontal zero to achieve a flat skull position. The skin on the top of the skull was cut along the midline and retracted. […] Following a 5 minute wait period after completion of the injection, the needle was slowly withdrawn, the skin wound was closed, and post-surgery analgesia (meloxicam 1 mg/kg) was administered. Some rats were randomly assigned to receive daily GM1 ganglioside (porcine brain derived GM1, 30 mg/kg, i.p., Qilu Pharmaceutical Co., Ltd.) or similar volume saline injections beginning 24 hours after AAV-A53T-synuclein surgery and lasting for 6 weeks (early start group). Other animals were randomly assigned to receive daily GM1 ganglioside (porcine brain derived GM1, 30 mg/kg, i.p., Qilu Pharmaceutical Co.) or similar volume saline injections beginning 3 weeks after AAV-A53T-synuclein surgery and lasting for 5 weeks (delayed start group). […] At the conclusion of the study, animals were euthanized, fresh brains were rapidly removed, and two to three striatal samples from both sides were dissected and immediately frozen for later analyses. The remainder of the brain (including the striatum beginning at the level of the decussation of the anterior commissure) was submersion fixed in 4% paraformaldehyde.
Fixed tissue blocks were immersed in 30% sucrose for cryoprotection and sectioned frozen on a sliding microtome (30 μm section thickness for striatal sections; 40 μm section thickness for SN sections). Sections through the rostro-caudal extent of the SN were collected and every sixth section from the SN was processed for tyrosine hydroxylase (TH) immunohistochemistry to be used for stereological cell counting. Three striatal sections from approximately the level of the decussation of the anterior commissure in each case were processed for α-synuclein immunohistochemistry. For immunohistochemistry, sections were washed and permeabilized with PBS containing 0.2% Triton X-100. Endogenous peroxidase activity was quenched using 3% hydrogen peroxide in PBS containing 0.2% Triton X-100. Sections were then blocked in PBS/triton X-100 containing 10% normal goat serum and 2% BSA, followed by primary antibody incubation (TH (rabbit anti-TH, 1:2,000, Pel-Freez); α-synuclein (mouse anti-α-synuclein clone 211; 1:2000, Millipore) overnight at 4° C. The following day, sections were washed in PBS and incubated in biotinylated secondary antibody (goat-anti-rabbit 1:4000 for TH; goat-anti-mouse 1:2000 for α-synuclein 1:2000, VECTOR Laboratories), followed by additional washes and incubation in avidin biotin complex (VECTASTAIN Elite ABC system, VECTOR Laboratories). The reaction product was visualized with 3,3′-diaminobenzidine (DAB) (Immpact DAB, VECTOR Laboratories). Sections were then mounted, dehydrated, cleared and coverslipped. Sections stained for visualization of TH and to be used for stereological cell counting were counterstained with cresyl violet prior to coverslipping. Stereological estimates of the numbers of TH and cresyl violet-stained neurons in the SNc on both sides of the brain were obtained using StereoInvestigator software (MBF Bioscience) and an Olympus BX-60 microscope equipped with a Ludl motorized stage. Slides were coded and analyzed blindly. […]

For assay [2], the system named is AAV-A53T α-synuclein rat model. In words: Cylinder test of spontaneous forelimb use. It counts as in vivo. As for the experimental part:
as §1
Forelimb use during explorative activity was analyzed using the cylinder test. The test apparatus consisted of a clear Plexiglass cylinder of approximately 33 cm diameter and 50 cm height placed in a dimly lit room in front of a mirror in order to visualize limb use from all angles. Each session was videotaped for later analysis by an observer blind to the animal's experimental group. The paw contralateral to the side of the AAV-A53T-α-synuclein injection was marked prior to the start of each test session to definitively determine laterality on videotapes. The test was performed in the late afternoon prior to the onset of the dark cycle. At each test session, the animal was gently placed in the cylinder and movements were videotaped for 10 minutes. Forelimb use was assessed by scoring weight-bearing contacts on the cylinder wall with the ipsilateral, contralateral (relative to the AAV-A53T-α-synuclein-injected side), and both paws. Twenty observations of the paw placements on the cylinder wall were scored. Limb placement on the wall was scored only if it occurred after the animal returned to a resting position and reared again to touch the cylinder wall. Percent ipsilateral (ipsi) and contralateral (contra) paw touches were calculated as [(ipsi+1/2 both)/total #observations]*100 and [(contra+1/2 both)/total #observations]*100, respectively. The cylinder test was performed prior to surgery (baseline) and at 3 and 6 weeks after surgery for the immediate start GM1 groups and at 3 and 8 weeks after surgery for the delayed start GM1 groups.

The mark [3] stands for this setting: AAV-A53T/Delayed GM1, injected side.
The mark [4] stands for this setting: AAV-A53T/Delayed GM1, non-injected side.
[5] abbreviates: AAV-A53T/Early GM1, injected side.
[6] abbreviates: AAV-A53T/Early GM1, non-injected side.

Marks after values point to notes of the source that are not given here.

As to GM1 ganglioside, the “Nissl+ Cells” value is 3335 ± 148^d in assay [1] (setting [3]), 6113 ± 132 in assay [1] (setting [4]), 3557 ± 172^b in assay [1] (setting [5]) and 6074 ± 174 in assay [1] (setting [6]). In addition, the “TH+ Cells” value in assay [1] (setting [3]) is 2814 ± 134^c; in assay [1] (setting [4]), 5685 ± 143; in assay [1] (setting [5]), 3144 ± 159^a; in assay [1] (setting [6]), 5601 ± 135. Also, in assay [1] (delayed start GM1, 8 weeks), the “loss of TH+ neurons compared to the contralateral side” value is reported as 50.6±2.1%. Also, the “loss of cresyl violet-stained neurons compared to the contralateral side” value in assay [1] (delayed start GM1, 8 weeks) is 45.5±2.1%; in assay [1] (early start GM1, 6 weeks) it was 41.9±2.5%. For the same substance, in assay [1] (early start GM1, 6 weeks), the “loss of TH+ neurons compared to the non-injected side” value is listed as 43.7±2.7%. In addition, the “percent ipsilateral forelimb use” value in assay [2] (delayed start GM1 30 mg/kg/day i.p. from week 3 for 5 weeks, week 8) is listed as 61.5±2.7%; in assay [2] (delayed start GM1 group, week 3, just prior to receiving GM1), 74.9±2.8%. For the same substance, the “percent ipsilateral limb use” value in assay [2] (delayed start GM1 group, baseline (prior to surgery and GM1)) came out at 50.0±2.0%; in assay [2] (early start GM1 30 mg/kg/day i.p. from 24 h after AAV-A53T, 3 weeks, mean±SEM), 67.1±3.7%; in assay [2] (early start GM1 30 mg/kg/day i.p. from 24 h after AAV-A53T, 6 weeks, mean±SEM), 56.0±2.5%; in assay [2] (early start GM1 group, baseline (prior to surgery and GM1), mean±SEM), 50.1±1.8%.
